pIC50: −log10 of the molar value. Where a name gives a salt, the structure may show the parent alone.
Experiments:
human mPGES-1 = human mPGES-1 (Homo sapiens (Human), UniProt O14684); assay: mPGES-1 inhibiting activity (microsome fractions, PGE2 by HTRF); type: biochemical; conditions: microsomes from CHO-K1 cells transfected with human mPGES-1; PGH2 1 μM, 4° C., 60 seconds; read-out: mPGES-1 Inhibition IC50
Outline: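 PGE2 formation read by HTRF after 60 s at 4 °C with 1 μM PGH2 substrate, following 20 min compound preincubation (1% DMSO) with human mPGES-1 microsomes from transfected CHO-K1 cells. Buffer: potassium phosphate, reduced glutathione, pH 7.4; IC50 from activity relative to enzyme-free blank.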

A549 cells = assay: Inhibition of PGE2 production in A549 cell (IL-1β stimulated); type: cell-based, human; conditions: Homo sapiens, A549, 24 h, IL-1β 5 ng/well, PGE2 in culture medium
Outline: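 After IL-1β (5 ng/well) stimulation for 24 h at 37 °C, following a 60-min compound pretreatment in RPMI with 3% FBS, medium PGE2 (HTRF) and PGF2α (EIA) from human A549 cells were quantified. 100% activity set as IL-1β-induced minus basal production; IC50 calculated.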

human mPGES-1, sequence (O14684 whole entry): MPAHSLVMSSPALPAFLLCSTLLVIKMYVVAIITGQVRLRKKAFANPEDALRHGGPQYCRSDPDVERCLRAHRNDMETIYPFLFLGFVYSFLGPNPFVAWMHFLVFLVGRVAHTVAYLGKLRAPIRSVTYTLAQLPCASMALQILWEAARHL

pIC50 (human mPGES-1) | pIC50 (A549 cells) | SMILES
9.00 | 6.86 | Cc1c(Cl)cccc1NC(=O)c1cc(NC(=O)c2ccc(Cl)cc2Cl)cc2[nH]c(N(C)C)nc12 [Example 184, N-(3-Chloro-2-methylphenyl)-6-{[(2,4-dichlorophenyl)carbonyl]amino}-2-(dimethylamino)-1H-benzimidazole-4-carboxamide hydrochloride]
8.35 | 8.25 | Cc1c(Cl)cccc1NC(=O)c1cc(NC(=O)c2cc(Cl)ccc2Cl)cc2[nH]c(N(C)C)nc12 [Example 185, N-(3-Chloro-2-methylphenyl)-6-{[(2,5-dichlorophenyl)carbonyl]amino}-2-(dimethylamino)-1H-benzimidazole-4-carboxamide hydrochloride]
8.85 | 7.61 | Cc1c(Cl)cccc1NC(=O)c1cc(NC(=O)c2cc(Cl)ccc2Cl)cc2[nH]c(NCC(C)(C)CO)nc12 [Example 189, N-(3-Chloro-2-methylphenyl)-6-{[(2,5-dichlorophenyl)carbonyl]amino}-2-[(3-hydroxy-2,2-dimethylpropyl)amino]-1H-benzimidazole-4-carboxamide hydrochloride]
10.00 | 8.15 | COCC(C)(C)CNc1nc2c(C(=O)Nc3cccc(Cl)c3C)cc(NC(=O)c3cc(Cl)ccc3Cl)cc2[nH]1 [Example 190, N-(3-Chloro-2-methylphenyl)-6-{[(2,5-dichlorophenyl)carbonyl]amino}-2-[(3-methoxy-2,2-dimethylpropyl)amino]-1H-benzimidazole-4-carboxamide hydrochloride]
8.41 | 7.31 | Cc1c(Cl)cccc1NC(=O)c1cc(NC(=O)c2cc(Cl)ccc2Cl)cc2[nH]c(NCC(C)(C)O)nc12 [Example 191, N-(3-Chloro-2-methylphenyl)-6-{[(2,5-dichlorophenyl)carbonyl]amino}-2-[(2-hydroxy-2-methylpropyl)amino]-1H-benzimidazole-4-carboxamide hydrochloride]
8.00 | 7.74 | COC(C)(C)CNc1nc2c(C(=O)Nc3cccc(Cl)c3C)cc(NC(=O)c3cc(Cl)ccc3Cl)cc2[nH]1 [Example 192, N-(3-Chloro-2-methylphenyl)-6-{[(2,5-dichlorophenyl)carbonyl]amino}-2-[(2-methoxy-2-methylpropyl)amino]-1H-benzimidazole-4-carboxamide hydrochloride]
9.40 | 7.72 | Cc1c(Cl)cccc1NC(=O)c1cc(NC(=O)c2cc(Cl)ccc2Cl)cc2[nH]c(NCCOC(C)C)nc12 [Example 193, N-(3-Chloro-2-methylphenyl)-6-{[(2,5-dichlorophenyl)carbonyl]amino}-2-{[2-(propan-2-yloxy)ethyl]amino}-1H-benzimidazole-4-carboxamide hydrochloride]
9.40 | 7.47 | Cc1c(Cl)cccc1NC(=O)c1cc(NC(=O)c2c(F)cccc2Cl)cc2[nH]c(NCCOC(C)C)nc12 [Example 194, 6-{[(2-Chloro-6-fluorophenyl)carbonyl]amino}-N-(3-chloro-2-methylphenyl)-2-{[2-(propan-2-yloxy)ethyl]amino}-1H-benzimidazole-4-carboxamide hydrochloride]
8.34 | 6.97 | Cc1c(Cl)cccc1NC(=O)c1cc(NC(=O)c2c(F)cccc2Cl)cc2[nH]c(NCC(C)(C)CO)nc12 [Example 200, 6-{[(2-Chloro-6-fluorophenyl)carbonyl]amino}-N-(3-chloro-2-methylphenyl)-2-[(3-hydroxy-2,2-dimethylpropyl)amino]-1H-benzimidazole-4-carboxamide hydrochloride]
9.30 | 6.60 | Cc1c(Cl)cccc1NC(=O)c1cc(NC(=O)c2c(F)cccc2Cl)cc2[nH]c(N[C@H](CO)C(C)C)nc12 [Example 201, 6-{[(2-Chloro-6-fluorophenyl)-carbonyl]amino}-N-(3-chloro-2-methylphenyl)-2-{[(25)-1-hydroxy-3-methylbutan-2-yl]amino}-1H-benzimidazole-4-carboxamide hydrochloride]

Further lines, the compound ahead of its results:

SMILES | pIC50 (human mPGES-1) | pIC50 (A549 cells)
Cc1c(Cl)cccc1NC(=O)c1cc(NC(=O)c2ccccc2C(F)(F)F)cc2[nH]c([S+](C)[O-])nc12 (stereo not drawn) [Example 181, N-(3-Chloro-2-methylphenyl)-2-(methylsulfinyl)-6-({[2-(trifluoromethyl)phenyl]carbonyl}amino)-1H-benzimidazole-4-carboxamide] | 8.96 | 6.15
Cc1c(Cl)cccc1NC(=O)c1cc(NC(=O)c2c(F)cccc2Cl)cc2[nH]c(N(C)C)nc12 [Example 182, 6-{[(2-Chloro-6-fluorophenyl)carbonyl]amino}-N-(3-chloro-2-methylphenyl)-2-(dimethylamino)-1H-benzimidazole-4-carboxamide hydrochloride] | 8.80 | 7.42
Cc1c(Cl)cccc1NC(=O)c1cc(NC(=O)c2c(Cl)cccc2Cl)cc2[nH]c(N(C)C)nc12 [Example 183, N-(3-Chloro-2-methylphenyl)-6-{[(2,6-dichlorophenyl)carbonyl]amino}-2-(dimethylamino)-1H-benzimidazole-4-carboxamide hydrochloride] | 8.72 | 8.21
Cc1c(Cl)cccc1NC(=O)c1cc(NC(=O)c2c(F)cccc2Br)cc2[nH]c(N(C)C)nc12 [Example 186, 6-{[(2-Bromo-6-fluorophenyl)carbonyl]amino}-N-(3-chloro-2-methylphenyl)-2-(dimethylamino)-1H-benzimidazole-4-carboxamide hydrochloride] | 8.21 | 7.86
Cc1c(Cl)cccc1NC(=O)c1cc(NC(=O)c2c(Cl)cccc2Br)cc2[nH]c(N(C)C)nc12 [Example 187, 6-{[(2-Bromo-6-chlorophenyl)carbonyl]amino}-N-(3-chloro-2-methylphenyl)-2-(dimethylamino)-1H-benzimidazole-4-carboxamide hydrochloride] | 8.44 | 7.90
Cc1c(Cl)cccc1NC(=O)c1cc(NC(=O)c2cc(C#CC3CC3)ccc2Cl)cc2[nH]c(N(C)C)nc12 [Example 188, 6-({[2-Chloro-5-(cyclopropylethynyl)phenyl]carbonyl}amino)-N-(3-chloro-2-methylphenyl)-2-(dimethylamino)-1H-benzimidazole-4-carboxamide hydrochloride] | 6.34 | 5.99
Cc1c(Cl)cccc1NC(=O)c1cc(NC(=O)c2c(F)cccc2Cl)cc2[nH]c(NCCOC(C)(C)C)nc12 [Example 195, 2-[(2-tert-Butoxyethyl)amino]-6-{[(2-chloro-6-fluorophenyl)carbonyl]amino}-N-(3-chloro-2-methylphenyl)-1H-benzimidazole-4-carboxamide hydrochloride] | 8.64 | 7.76
COCC(C)(C)CNc1nc2c(C(=O)Nc3cccc(Cl)c3C)cc(NC(=O)c3c(F)cccc3Cl)cc2[nH]1 [Example 196, 6-{[(2-Chloro-6-fluorophenyl)carbonyl]amino}-N-(3-chloro-2-methylphenyl)-2-[(3-methoxy-2,2-dimethylpropyl)amino]-1H-benzimidazole-4-carboxamide hydrochloride] | 8.19 | 7.44
COC(C)(C)CNc1nc2c(C(=O)Nc3cccc(Cl)c3C)cc(NC(=O)c3c(F)cccc3Cl)cc2[nH]1 [Example 197, 6-{[(2-Chloro-6-fluorophenyl)carbonyl]amino}-N-(3-chloro-2-methylphenyl)-2-[(2-methoxy-2-methylpropyl)amino]-1H-benzimidazole-4-carboxamide hydrochloride] | 8.28 | 7.46
Cc1c(Cl)cccc1NC(=O)c1cc(NC(=O)c2c(F)cccc2Cl)cc2[nH]c(NC[C@@H]3CCCO3)nc12 [Example 198, 6-{[(2-Chloro-6-fluorophenyl)-carbonyl]amino}-N-(3-chloro-2-methylphenyl)-2-{[(2S)-tetrahydrofuran-2-ylmethyl]amino}-1H-benzimidazole-4-carboxamide hydrochloride] | 8.22 | 7.47
Cc1c(Cl)cccc1NC(=O)c1cc(NC(=O)c2c(F)cccc2Cl)cc2[nH]c(NC[C@H]3CCCO3)nc12 [Example 199, 6-{[(2-Chloro-6-fluorophenyl)-carbonyl]amino}-N-(3-chloro-2-methylphenyl)-2-{[(2R)-tetrahydrofuran-2-ylmethyl]amino}-1H-benzimidazole-4-carboxamide hydrochloride] | 8.01 | 7.36
Cc1ccc(NC(=O)c2cc(NC(=O)c3ccccc3C(F)(F)F)cc3[nH]c(N(C)C)nc23)cc1Cl [Example 202, N-(3-Chloro-4-methylphenyl)-2-(dimethylamino)-6-({[2-(trifluoromethyl)phenyl]carbonyl}amino)-1H-benzimidazole-4-carboxamide hydrochloride] | 8.31 | 8.23
CN(C)c1nc2c(C(=O)Nc3ccc(C(C)(C)C)cc3)cc(NC(=O)c3ccccc3C(F)(F)F)cc2[nH]1 [Example 203, N-(4-tert-Butylphenyl)-2-(dimethylamino)-6-({[2-(trifluoromethyl)phenyl]carbonyl}amino)-1H-benzimidazole-4-carboxamide hydrochloride] | 8.85 | 8.28
CN(C)c1nc2c(C(=O)Nc3ccc4c(c3)CCC4)cc(NC(=O)c3ccccc3C(F)(F)F)cc2[nH]1 [Example 204, N-(2,3-Dihydro-1H-inden-5-yl)-2-(dimethylamino)-6-({[2-(trifluoromethyl)phenyl]carbonyl}amino)-1H-benzimidazole-4-carb oxamide hydrochloride] | 9.00 | 7.91

From patent publication US9216968B2, “Heterocyclic derivative and pharmaceutical drug” (NIPPON SHINYAKU CO., LTD., priority 2011, dated 2015)
